Reference: ChEMBL document CHEMBL3885861, “Open TG-GATES”

Species: Rattus norvegicus
Assay: Open TG-GATES - Regimen: Daily Repeat
Assay type: toxicity, organism-based, Sprague-Dawley
Set-up: regimen Daily Repeat, gender Male, age 6 weeks
Settings: in vivo, po, 0 mg/kg, route gavage, dose level Control; for APTT / Bas / Eos / Fbg / Hb / Ht / Lym / MCH / MCHC / MCV / Mono / Neu / PT / Plat / RBC / Ret / WBC: tissue Blood; for KIDNEY_L / KIDNEY_R / KIDNEY_TOTAL: tissue Kidney; for LIVER: tissue Liver; for A/G / ALP / ALT / AST / BUN / CRE / Ca / Cl / DBIL / GLC / IP / K / LDH / Na / PL / RALB / TBIL / TC / TG / TP / gamma-GTP: tissue Plasma

CC1=C(CC(=O)O)c2cc(F)ccc2/C1=C\c1ccc([S+](C)[O-])cc1 (configuration not stated)
TERMINAL_BW (72 h, time 3 day): 233.7 g
APTT (72 h, time 3 day): 16 s
Bas (72 h, time 3 day): 0%
Eos (72 h, time 3 day): 1%
Fbg (72 h, time 3 day): 298.2 mg/dL
Hb (72 h, time 3 day): 14.3 g/dL
Ht (72 h, time 3 day): 42.9%
Lym (72 h, time 3 day): 79%
MCH (72 h, time 3 day): 21.6 pg
MCHC (72 h, time 3 day): 33.3%
MCV (72 h, time 3 day): 64.9 fL
Mono (72 h, time 3 day): 2.2%
Neu (72 h, time 3 day): 17%
PT (72 h, time 3 day): 13.8 s
Plat (72 h, time 3 day): 126.4 x10_4/uL
RBC (72 h, time 3 day): 662.2 x10_4/ul
Ret (72 h, time 3 day): 7.1%
WBC (72 h, time 3 day): 84.9 x10_2/uL
KIDNEY_L (72 h, time 3 day): 1 g
KIDNEY_R (72 h, time 3 day): 1 g
KIDNEY_TOTAL (72 h, time 3 day): 1.9 g
LIVER (72 h, time 3 day): 11.1 g
A/G (72 h, time 3 day): 0.9
ALP (72 h, time 3 day): 1760.4 IU/L
ALT (72 h, time 3 day): 44 IU/L
AST (72 h, time 3 day): 69.4 IU/L
BUN (72 h, time 3 day): 15 mg/dL
CRE (72 h, time 3 day): 0.2 mg/dL
Ca (72 h, time 3 day): 11.2 mg/dL
Cl (72 h, time 3 day): 105.8 meq/L
DBIL (72 h, time 3 day): 0.014 mg/dL
GLC (72 h, time 3 day): 180.6 mg/dL
IP (72 h, time 3 day): 7.5 mg/dL
K (72 h, time 3 day): 4.2 meq/L
LDH (72 h, time 3 day): 73.8 IU/L
Na (72 h, time 3 day): 142 meq/L
PL (72 h, time 3 day): 160.8 mg/dL
RALB (72 h, time 3 day): 2.7 g/dL
TBIL (72 h, time 3 day): 0.02 mg/dL
TC (72 h, time 3 day): 80.4 mg/dL
TG (72 h, time 3 day): 111.6 mg/dL
TP (72 h, time 3 day): 5.6 g/dL
gamma-GTP (72 h, time 3 day): 1 IU/L
TERMINAL_BW ([…], time 7 day): 270.8 g
TERMINAL_BW ([…], time 14 day): 336.8 g
TERMINAL_BW ([…], time 28 day): 383.5 g
APTT ([…], time 7 day): 16.4 s
Bas ([…], time 7 day): 0.2%
Eos ([…], time 7 day): 1%
Fbg ([…], time 7 day): 306.6 mg/dL
Hb ([…], time 7 day): 14.4 g/dL
Ht ([…], time 7 day): 42.3%
Lym ([…], time 7 day): 81.2%
MCH ([…], time 7 day): 21.3 pg
MCHC ([…], time 7 day): 34.1%
MCV ([…], time 7 day): 62.5 fL
Mono ([…], time 7 day): 2.6%
Neu ([…], time 7 day): 14.4%
PT ([…], time 7 day): 13.6 s
Plat ([…], time 7 day): 131.7 x10_4/uL
RBC ([…], time 7 day): 678.6 x10_4/ul
Ret ([…], time 7 day): 5.9%
WBC ([…], time 7 day): 91.7 x10_2/uL
APTT ([…], time 14 day): 17.6 s
Bas ([…], time 14 day): 0.2%
Eos ([…], time 14 day): 1%
Fbg ([…], time 14 day): 299.8 mg/dL
Hb ([…], time 14 day): 15.1 g/dL
Ht ([…], time 14 day): 44.6%
Lym ([…], time 14 day): 76.8%
MCH ([…], time 14 day): 20.9 pg
MCHC ([…], time 14 day): 33.9%
MCV ([…], time 14 day): 61.5 fL
Mono ([…], time 14 day): 2.4%
Neu ([…], time 14 day): 19.6%
PT ([…], time 14 day): 14.2 s
Plat ([…], time 14 day): 124.3 x10_4/uL
RBC ([…], time 14 day): 725.2 x10_4/ul
Ret ([…], time 14 day): 4.3%
WBC ([…], time 14 day): 92.8 x10_2/uL
APTT ([…], time 28 day): 17.9 s
Bas ([…], time 28 day): 0.2%
Eos ([…], time 28 day): 1.8%
Fbg ([…], time 28 day): 282.6 mg/dL
Hb ([…], time 28 day): 15.2 g/dL
Ht ([…], time 28 day): 46.1%
Lym ([…], time 28 day): 79.2%
MCH ([…], time 28 day): 18.9 pg
MCHC ([…], time 28 day): 32.9%
MCV ([…], time 28 day): 57.4 fL
Mono ([…], time 28 day): 1.8%
Neu ([…], time 28 day): 16.2%
PT ([…], time 28 day): 13.2 s
Plat ([…], time 28 day): 109 x10_4/uL
RBC ([…], time 28 day): 802.4 x10_4/ul
Ret ([…], time 28 day): 2.4%
WBC ([…], time 28 day): 108.9 x10_2/uL
KIDNEY_L ([…], time 7 day): 1.1 g
KIDNEY_R ([…], time 7 day): 1.1 g
KIDNEY_TOTAL ([…], time 7 day): 2.1 g
KIDNEY_L ([…], time 14 day): 1.3 g
KIDNEY_R ([…], time 14 day): 1.3 g
KIDNEY_TOTAL ([…], time 14 day): 2.5 g
KIDNEY_L ([…], time 28 day): 1.3 g
KIDNEY_R ([…], time 28 day): 1.3 g
KIDNEY_TOTAL ([…], time 28 day): 2.6 g
LIVER ([…], time 7 day): 12.7 g
LIVER ([…], time 14 day): 14.8 g
LIVER ([…], time 28 day): 14.9 g
A/G ([…], time 7 day): 0.9
ALP ([…], time 7 day): 1662.6 IU/L
ALT ([…], time 7 day): 45.2 IU/L
AST ([…], time 7 day): 69.8 IU/L
BUN ([…], time 7 day): 16.8 mg/dL
CRE ([…], time 7 day): 0.2 mg/dL
Ca ([…], time 7 day): 10.9 mg/dL
Cl ([…], time 7 day): 104.4 meq/L
DBIL ([…], time 7 day): 0.012 mg/dL
GLC ([…], time 7 day): 183 mg/dL
IP ([…], time 7 day): 7.2 mg/dL
K ([…], time 7 day): 4.2 meq/L
LDH ([…], time 7 day): 108.4 IU/L
Na ([…], time 7 day): 140.4 meq/L
PL ([…], time 7 day): 177 mg/dL
RALB ([…], time 7 day): 2.7 g/dL
TBIL ([…], time 7 day): 0.018 mg/dL
TC ([…], time 7 day): 94.2 mg/dL
TG ([…], time 7 day): 120.4 mg/dL
TP ([…], time 7 day): 5.7 g/dL
gamma-GTP ([…], time 7 day): 0.8 IU/L
A/G ([…], time 14 day): 0.9
ALP ([…], time 14 day): 1218 IU/L
ALT ([…], time 14 day): 38.6 IU/L
AST ([…], time 14 day): 66.8 IU/L
BUN ([…], time 14 day): 17.8 mg/dL
CRE ([…], time 14 day): 0.2 mg/dL
Ca ([…], time 14 day): 11.1 mg/dL
Cl ([…], time 14 day): 105.4 meq/L
DBIL ([…], time 14 day): 0.012 mg/dL
GLC ([…], time 14 day): 180 mg/dL
IP ([…], time 14 day): 6 mg/dL
K ([…], time 14 day): 3.8 meq/L
LDH ([…], time 14 day): 65.6 IU/L
Na ([…], time 14 day): 143.6 meq/L
PL ([…], time 14 day): 163.4 mg/dL
RALB ([…], time 14 day): 2.8 g/dL
TBIL ([…], time 14 day): 0.044 mg/dL
TC ([…], time 14 day): 73.2 mg/dL
TG ([…], time 14 day): 175.4 mg/dL
TP ([…], time 14 day): 5.9 g/dL
gamma-GTP ([…], time 14 day): 1 IU/L
A/G ([…], time 28 day): 0.8
ALP ([…], time 28 day): 1152 IU/L
ALT ([…], time 28 day): 35.8 IU/L
AST ([…], time 28 day): 63.6 IU/L
BUN ([…], time 28 day): 16.8 mg/dL
CRE ([…], time 28 day): 0.3 mg/dL
Ca ([…], time 28 day): 10.3 mg/dL
Cl ([…], time 28 day): 105 meq/L
DBIL ([…], time 28 day): 0.012 mg/dL
GLC ([…], time 28 day): 192.2 mg/dL
IP ([…], time 28 day): 6.5 mg/dL
K ([…], time 28 day): 3.6 meq/L
LDH ([…], time 28 day): 82.8 IU/L
Na ([…], time 28 day): 142 meq/L
PL ([…], time 28 day): 128.8 mg/dL
RALB ([…], time 28 day): 2.7 g/dL
TBIL ([…], time 28 day): 0.074 mg/dL
TC ([…], time 28 day): 57.4 mg/dL
TG ([…], time 28 day): 125.6 mg/dL
TP ([…], time 28 day): 6 g/dL
gamma-GTP ([…], time 28 day): 1 IU/L
